Measured values published in US12692249B2, “WDR5 inhibitors and modulators” (Vanderbilt University, priority 2019, dated 2026).

Tests used:
WDR5 = WDR5 (Homo sapiens, UniProt P61964); assay: TR-FRET competition binding assay, displacement of 10mer-Thr-FAM MLL peptide probe from His-tagged WDR5; settings: WDR5-His tag (residues 24-334) 2 nM; 10mer-Thr-FAM 150 nM; 60 min, room temperature; read-out: Ki for Inhibition of WDR5 by TR-FRET assay
Protocol: Time Resolved-Fluorescence Energy Transfer Competition Assay […] Excess 10mer-Thr-FAM probe was utilized with His-tagged WDR5 in conjunction with a commercial anti-His antibody containing a Terbium label. The LanthaScreenTM Elite Tb-anti-HIS Antibody from ThermoFisher Scientific was used for this purpose. […] The 10mer-Thr-FAM probe when bound to WDR5 will undergo a FRET interaction with the Tb-anti-HIS and emit at 520 nm. […] WDR[…] 10[…] used at 150 nM. […] A source plate is prepared using an Echo Liquid Handler, which distributes the compounds to the assay plate (white, flat-bottom; OptiPlate) in a 10-point, 5-fold dilution schemes with a top concentration of 5 μM, in a final volume of 20 μL. […] The final DMSO concentration in each well of the assay plate is 1% or lower. The plate is covered, shielded from light, and incubated for 60 minutes at room temperature with rocking. 10mer-Thr-FAM and Anti-His terbium antibody fluorescence is then measured on a Biotek Cytation 3 at excitation wavelength of 340 nm, and emission wavelengths of 495 nm and 520 nm. […] TR-FRET signal is plotted and IC50 and Ki values are calculated according to the formula of Wang Z. FEBS Lett (1996) 3, 245. Ki=[I]50/([L]50/Kd+[P]0/Kd+1) where [I]50 is the concentration of the free inhibitor at 50% inhibition, [L]50 is the concentration of the free labeled ligand at 50% inhibition, [P]0 is the concentration of the free protein at 0% inhibition, Kd represents the dissociation constant of the FITC-MLL or 10mer-Thr-FAM probe for WDR5. Total fluorescence is also measured, to rule out compounds that are inherently fluorescent or able to act as quenchers in the assay. TR-FRET Binding Assay

[1] = test system: MV4:11 human cancer cell lines; assay: Cellular viability / anti-proliferative assay, CellTiter-Glo, 5 day protocol; type: cell-based; settings: Homo sapiens, MV4-11, 120 h, MV4:11 cells; 5 day incubation; CellTiter-Glo; mean of at least two replicates; read-out: GI50 on cellular proliferation of MV4:11 human cancer cell lines
Procedure, shortened: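 Luminescent ATP-based viability (CellTiter-Glo) after a 5-day exposure gave GI50 via sigmoidal fitting, averaged over two or more replicates. Compounds spanned 22 two-fold steps down from 30 μM at 0.3% DMSO, on 200 MV-4-11 cells per well grown in IMDM plus 10% FBS.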

COc1cc(N2CCOCC2)c2nccc(N3CCc4c(cc(Cn5ccnc5)cc4-c4cn(C)nc4C(F)(F)F)C3=O)c2c1 [Example 30, 7-((1H-Imidazol-1-yl)methyl)-2-(6-methoxy-8-morpholinoquinolin-4-yl)-5-(1-methyl-3-(trifluoromethyl)-1H-pyrazol-4-yl)-3,4-dihydroisoquinolin-1(2H)-one]
Ki (WDR5): < 0.02 nM | GI50 [1]: < 20 nM

CCn1cc(-c2cc(Cn3ccnc3C)cc3c2CCN(c2cn(C)c4ccc(OC)cc24)C3=O)c(C(F)(F)F)n1 [Example 86, 5-(1-Ethyl-3-(trifluoromethyl)-1H-pyrazol-4-yl)-2-(5-methoxy-1-methyl-1H-indol-3-yl)-7-((2-methyl-1H-imidazol-1-yl)methyl)-3,4-dihydroisoquinolin-1(2H)-one]
Ki (WDR5): < 0.02 nM | GI50 [1]: 107 nM

CCn1cc(N2CCc3c(cc(Cn4ccnc4)cc3-c3cn(C)nc3C(F)(F)F)C2=O)c2cc(OC)cnc21 [Example 84, 7-((1H-Imidazol-1-yl)methyl)-2-(1-ethyl-5-methoxy-1H-pyrrolo[2,3-b]pyridin-3-yl)-5-(1-methyl-3-(trifluoromethyl)-1H-pyrazol-4-yl)-3,4-dihydroisoquinolin-1(2H)-one]
Ki (WDR5): < 0.02 nM | GI50 [1]: 39 nM

CCn1cc(-c2cc(Cn3ccnc3)cc3c2CCN([C@H]2CCOc4ccc(OC)cc42)C3=O)c(C(F)(F)F)n1 [Example 75, (S)-7-((1H-Imidazol-1-yl)methyl)-5-(1-ethyl-3-(trifluoromethyl)-1H-pyrazol-4-yl)-2-(6-methoxychroman-4-yl)-3,4-dihydroisoquinolin-1(2H)-one]
Ki (WDR5): < 0.02 nM | GI50 [1]: 23 nM

COc1cc(C(=O)NC2CN(C(=O)c3ccncc3)C2)c2nccc(N3CCc4c(cc(Cn5ccnc5)cc4-c4cn(C)nc4C(F)(F)F)C3=O)c2c1 [Example 242, 4-(7-((1H-Imidazol-1-yl)methyl)-5-(1-methyl-3-(trifluoromethyl)-1H-pyrazol-4-yl)-1-oxo-3,4-dihydroisoquinolin-2(1H)-yl)-N-(1-isonicotinoylazetidin-3-yl)-6-methoxyquinoline-8-carboxamide]
Ki (WDR5): < 0.02 nM | GI50 [1]: 29 nM

Cc1cc(Cl)c2cncc(N3CCc4c(cc(Cn5ccnc5)cc4-c4cn(C)nc4C(F)(F)F)C3=O)c2c1 [Example 24, 7-((1H-Imidazol-1-yl)methyl)-8′-chloro-6′-methyl-5-(1-methyl-3-(trifluoromethyl)-1H-pyrazol-4-yl)-3,4-dihydro-1H-[2,4′-biisoquinolin]-1-one]
Ki (WDR5): 0.026 nM | GI50 [1]: 92 nM

COc1cc(C(=N)NO)c2nc(C)cc(N3CCc4c(cc(Cn5ccnc5)cc4-c4cn(C)nc4C(F)(F)F)C3=O)c2c1 [Example 184, 4-(7-((1H-Imidazol-1-yl)methyl)-5-(1-methyl-3-(trifluoromethyl)-1H-pyrazol-4-yl)-1-oxo-3,4-dihydroisoquinolin-2(1H)-yl)-N-hydroxy-6-methoxy-2-methylquinoline-8-carboximidamide]
Ki (WDR5): < 0.02 nM | GI50 [1]: 21 nM

CCc1cc(OC)c2nc(C)cc(N3CCc4c(cc(Cn5ccnc5)cc4-c4cn(C)nc4C(F)(F)F)C3=O)c2c1 [Example 120, 7-((1H-Imidazol-1-yl)methyl)-2-(6-ethyl-8-methoxy-2-methylquinolin-4-yl)-5-(1-methyl-3-(trifluoromethyl)-1H-pyrazol-4-yl)-3,4-dihydroisoquinolin-1(2H)-one]
Ki (WDR5): 0.023 nM | GI50 [1]: < 20 nM

COc1cc(N2CCN(C)CC2)c2nccc(N3CCc4c(cc(Cn5ccnc5)cc4-c4cn(C)nc4C(F)(F)F)C3=O)c2c1 [Example 31, 7-((1H-Imidazol-1-yl)methyl)-2-(6-methoxy-8-(4-methylpiperazin-1-yl)quinolin-4-yl)-5-(1-methyl-3-(trifluoromethyl)-1H-pyrazol-4-yl)-3,4-dihydroisoquinolin-1(2H)-one]
Ki (WDR5): < 0.02 nM | GI50 [1]: < 20 nM

CCc1cc(C(=O)NC2CN(C(=O)C3CCOCC3)C2)c2nccc(N3CCc4c(cc(Cn5ccnc5)cc4-c4cn(C)nc4C(F)(F)F)C3=O)c2c1 [Example 223, 4-(7-((1H-Imidazol-1-yl)methyl)-5-(1-methyl-3-(trifluoromethyl)-1H-pyrazol-4-yl)-1-oxo-3,4-dihydroisoquinolin-2(1H)-yl)-6-ethyl-N-(1-(tetrahydro-2H-pyran-4-carbonyl)azetidin-3-yl)quinoline-8-carboxamide]
Ki (WDR5): < 0.02 nM | GI50 [1]: < 20 nM

CCc1cc(COC2CNC2)c2nccc(N3CCc4c(cc(Cn5ccnc5)cc4-c4cn(C)nc4C(F)(F)F)C3=O)c2c1 [Example 179, 7-((1H-Imidazol-1-yl)methyl)-2-(8-((azetidin-3-yloxy)methyl)-6-ethylquinolin-4-yl)-5-(1-methyl-3-(trifluoromethyl)-1H-pyrazol-4-yl)-3,4-dihydroisoquinolin-1(2H)-one]
Ki (WDR5): < 0.02 nM | GI50 [1]: 33 nM

CCc1cnc2cncc(N3CCc4c(cc(Cn5ccnc5)cc4-c4cn(C)nc4C(F)(F)F)C3=O)c2c1 [Example 211, 7-((1H-imidazol-1-yl)methyl)-2-(3-ethyl-1,7-naphthyridin-5-yl)-5-(1-methyl-3-(trifluoromethyl)-1H-pyrazol-4-yl)-3,4-dihydroisoquinolin-1(2H)-one]
Ki (WDR5): < 0.02 nM | GI50 [1]: 20 nM

COc1cc(CN2CCN(C)C(=O)C2)c2nccc(N3CCc4c(cc(Cn5ccnc5)cc4-c4cn(C)nc4C(F)(F)F)C3=O)c2c1 [Example 131, 7-((1H-Imidazol-1-yl)methyl)-2-(6-methoxy-8-((4-methyl-3-oxopiperazin-1-yl)methyl)quinolin-4-yl)-5-(1-methyl-3-(trifluoromethyl)-1H-pyrazol-4-yl)-3,4-dihydroisoquinolin-1(2H)-one]
Ki (WDR5): 0.043 nM | GI50 [1]: < 20 nM

COc1ccc2ncc(Cl)c(N3CCc4c(cc(Cn5ccnc5C)cc4-c4cn(C)nc4C(F)(F)F)C3=O)c2c1 [Example 9, 2-(3-Chloro-6-methoxyquinolin-4-yl)-7-((2-methyl-1H-imidazol-1-yl)methyl)-5-(1-methyl-3-(trifluoromethyl)-1H-pyrazol-4-yl)-3,4-dihydroisoquinolin-1(2H)-one]
Ki (WDR5): 0.048 nM | GI50 [1]: 43 nM

COc1cc(C#N)c2nc(C)cc(N3CCc4c(cc(Cn5ccnc5)cc4-c4cn(C)nc4C(F)(F)F)C3=O)c2c1 [Example 175, 4-(7-((1H-Imidazol-1-yl)methyl)-5-(1-methyl-3-(trifluoromethyl)-1H-pyrazol-4-yl)-1-oxo-3,4-dihydroisoquinolin-2(1H)-yl)-6-methoxy-2-methylquinoline-8-carbonitrile]
Ki (WDR5): < 0.02 nM | GI50 [1]: < 20 nM

COc1cnc2c(c1)c(N1CCc3c(cc(Cn4ccnc4C)cc3-c3cn(C)nc3C(F)(F)F)C1=O)cn2C [Example 79, 2-(5-Methoxy-1-methyl-1H-pyrrolo[2,3-b]pyridin-3-yl)-7-((2-methyl-1H-imidazol-1-yl)methyl)-5-(1-methyl-3-(trifluoromethyl)-1H-pyrazol-4-yl)-3,4-dihydroisoquinolin-1(2H)-one]
Ki (WDR5): < 0.02 nM | GI50 [1]: < 20 nM

CCc1cc(CN(C)C(C)=O)c2nccc(N3CCc4c(cc(Cn5ccnc5)cc4-c4cn(C)nc4C(F)(F)F)C3=O)c2c1 [Example 238]
Ki (WDR5): < 0.02 nM | GI50 [1]: 30 nM

Cc1ccc2nccc(N3CCc4c(cc(Cn5ccnc5)cc4-c4cn(C)nc4C(F)(F)F)C3=O)c2c1 [Example 15, 7-((1H-Imidazol-1-yl)methyl)-5-(1-methyl-3-(trifluoromethyl)-1H-pyrazol-4-yl)-2-(6-methylquinolin-4-yl)-3,4-dihydroisoquinolin-1(2H)-one]
Ki (WDR5): 0.026 nM | GI50 [1]: 64 nM

CCc1cc(N2CCn3cnnc3C2)c2nccc(N3CCc4c(cc(Cn5ccnc5)cc4-c4cn(C)nc4C(F)(F)F)C3=O)c2c1 [Example 208, 7-((1H-Imidazol-1-yl)methyl)-2-(8-(5,6-dihydro-[1,2,4]triazolo[4,3-a]pyrazin-7(8H)-yl)-6-ethylquinolin-4-yl)-5-(1-methyl-3-(trifluoromethyl)-1H-pyrazol-4-yl)-3,4-dihydroisoquinolin-1(2H)-one]
Ki (WDR5): < 0.02 nM | GI50 [1]: 55 nM

CCc1cc(C(=O)Nc2ncco2)c2nccc(N3CCc4c(cc(Cn5ccnc5)cc4-c4cn(C)nc4C(F)(F)F)C3=O)c2c1 [Example 160, 4-(7-((1H-Imidazol-1-yl)methyl)-5-(1-methyl-3-(trifluoromethyl)-1H-pyrazol-4-yl)-1-oxo-3,4-dihydroisoquinolin-2(1H)-yl)-6-ethyl-N-(oxazol-2-yl)quinoline-8-carboxamide]
Ki (WDR5): < 0.02 nM | GI50 [1]: < 20 nM
